{"source": "patent US20220323405A1", "about": "“COMBINATION PRODUCT USING 3,4-METHYLENEDIOXYMETHAMPHETAMINE AND […] THE TREATMENT OF […] DISORDERS” (Universitätsspital Basel, priority 2021, published 2022)", "key": {"[1]": {"test_system": "humans", "settings": "cited from earlier work"}, "[2]": {"test_system": "healthy subjects", "settings": "doxazosin 8 mg/d for 3 days before MDMA 125 mg; cited from earlier work"}, "[3]": {"test_system": "healthy humans", "experiment": "Modeled co-administration of carvedilol with MDMA at the same time (estimates from pre-administration data)", "parameters": "species or system human", "excerpt": "FIGS. 11A-11C are graphs showing effects of MDMA alone, carvedilol alone, carvedilol prior to MDMA and carvedilol co-administered with MDMA at the same time (modeled data) on systolic (FIG. 11A), diastolic (FIG. 11B), and mean arterial blood pressure (FIG. 11C) in healthy humans; and\nFIGS. 12A-12B are graphs showing effects of MDMA alone, carvedilol alone, carvedilol prior to MDMA and carvedilol co-administered with MDMA at the same time (modeled data) on heart rate (FIG. 12A) and body temperature (FIG. 12B) in healthy humans.\nTherefore, the present invention further developed the carvedilol-pre-dosing approach into a simultaneous dosing approach. The study provided the information on the effects of carvedilol alone, and MDMA alone.\nFor blood pressure and heart rate the effects of carvedilol given simultaneously with MDMA were therefore estimated using the carvedilol and placebo mean values for each measured time point after administration and the mean carvedilol-placebo effect difference was calculated and then subtracted from the MDMA-placebo difference (FIGS. 11A-11C).\nFIGS. 11A-11C and 12A-12B illustrate the beneficial effect of the present invention using co-administration of the adverse effect-reducing agent (carvedilol) and the empathogen/entactogen (MDMA). If carvedilol is administered before MDMA (carvedilol prior MDMA condition) as in the past study (Hysek et al., 2012a), a drop in blood pressure and heart rate can be observed in FIGS. 11A-11C and 12A-12B prior to the MDMA administration and consistent with the effect of carvedilol alone.\nThe graphical illustrations (FIGS. 11A-11C and 12A-12B) are based on estimates and modeling using existing data from the pre-administration of carvedilol. However, it is clear from illustrations FIGS. 11A-11C and 12A-12B that the invention provides an effective approach to reduce MDMA-induced cardiostimulant effects."}, "[4]": {"test_system": "rats", "settings": "cited from earlier work"}, "[5]": {"test_system": "healthy human subjects", "settings": "MDMA 125 mg vs placebo, cited from earlier work"}, "[6]": {"test_system": "healthy subjects", "settings": "non-ambulating persons, 1.5-4 hours after administration vs placebo; p<0.001; cited from earlier work"}, "[7]": {"test_system": "healthy subjects", "settings": "cited from earlier work"}, "[8]": {"test_system": "humans", "settings": "carvedilol 50 mg; cited from earlier work"}, "[9]": {"settings": "humans, after MDMA vs after pindolol-MDMA"}, "[10]": {"settings": "carvedilol 50 mg 1 hour before MDMA 125 mg"}, "[11]": {"settings": "carvedilol 50 mg 1 hour before MDMA 125 mg, listed as Carvedilol"}}, "note": "Like-named read-outs stand apart in the source and are kept apart here.", "data": [{"smiles": "CC(C)NCC(O)COc1cccc2[nH]ccc12", "note": "(stereo not shown) [pindolol]", "values": [{"measurement": "Effect on MDMA-induced increase in body temperature", "setting": "[1]; pindolol pretreatment", "result": "no effect"}, {"measurement": "Effect on adverse effects of MDMA", "setting": "[1]; pindolol pretreatment", "result": "did not change"}]}, {"smiles": "COc1cc2nc(N3CCN(C(=O)C4COc5ccccc5O4)CC3)nc(N)c2cc1OC", "note": "(stereo not shown) [Doxazosin, doxazosin]", "values": [{"measurement": "Effect on MDMA-induced elevations in blood pressure", "setting": "[2]", "result": "reduced"}, {"measurement": "Effect on MDMA-induced elevations in body temperature", "setting": "[2]", "result": "reduced"}]}, {"smiles": "CNC(C)Cc1ccc2c(c1)OCO2", "note": "(stereo not shown) [MDMA, 3,4-methylenedioxymethamphetamine]", "values": [{"measurement": "Body temperature (FIG. 12B)", "setting": "[3]; MDMA alone", "result": "slightly increases"}, {"measurement": "Norepinephrine levels", "setting": "[4]", "result": "induced"}, {"measurement": "Peak mean arterial blood pressure (MAP) values", "setting": "[1]; [9]", "result": "115±11", "unit": "mm Hg"}, {"measurement": "Peak values (mean±SD) for heart rate", "setting": "[1]; [9]", "result": "84±13", "unit": "beats/minute"}, {"measurement": "Diastolic and systolic blood pressure", "setting": "[5]", "result": "significantly increased"}, {"measurement": "Heart rate", "setting": "[5]", "result": "significantly increased"}, {"measurement": "Pupil size", "setting": "[5]", "result": "significantly increased"}, {"measurement": "Rate pressure product", "setting": "[5]", "result": "significantly increased"}, {"measurement": "Body temperature", "setting": "[5]; tympanic", "result": "significantly increased"}, {"measurement": "Body temperature", "setting": "[6]", "result": "elevated"}]}, {"smiles": "COc1ccccc1OCCNCC(O)COc1cccc2[nH]c3ccccc3c12", "note": "(stereo not shown) [carvedilol]", "values": [{"measurement": "Effect on MDMA-induced increase in body temperature (FIG. 12B)", "setting": "[3]; carvedilol administered prior to MDMA and with MDMA, modeled data", "result": "reduce"}, {"measurement": "Effect on MDMA-induced increase in heart rate and blood pressure", "setting": "[3]; carvedilol with MDMA at the same time, modeled data", "result": "reduce the MDMA effect effectively and similarly"}, {"measurement": "Effect on MDMA-induced elevations in blood pressure", "setting": "[7]; [10]", "result": "effectively reduced"}, {"measurement": "Effect on MDMA-induced elevations in body temperature", "setting": "[7]; [10]", "result": "reduced"}, {"measurement": "Effect on MDMA-induced elevations in heart rate", "setting": "[7]; [10]", "result": "effectively reduced"}, {"measurement": "Effect on plasma exposure to MDMA", "setting": "[7]; [10]", "result": "did not alter"}, {"measurement": "Effect on subjective effects of MDMA (good drug effects, drug liking)", "setting": "[7]; [10]", "result": "did not alter"}, {"measurement": "Effect on MDMA-induced elevations in blood pressure", "setting": "[7]; [11]", "result": "reduced"}, {"measurement": "Effect on MDMA-induced elevations in heart rate", "setting": "[7]; [11]", "result": "reduced"}, {"measurement": "Effect on subjective effects of MDMA (good drug effects, drug liking)", "setting": "[7]; [11]", "result": "did not affect"}, {"measurement": "Blood pressure and heart rate prior to the MDMA administration", "setting": "[7]; carvedilol prior MDMA condition", "result": "drop"}, {"measurement": "Effect on established MDMA-induced hyperthermia", "setting": "[4]; administered 1 hour after MDMA", "result": "completely reversed"}, {"measurement": "Effect on MDMA-induced hyperthermic (thermogenic) response", "setting": "[4]; administered before or after MDMA", "result": "prevented"}, {"measurement": "Effect on smoked cocaine-induced increases in heart rate and blood pressure", "setting": "[8]", "result": "attenuate"}]}]}
